Experimental data taken from ChEMBL document CHEMBL1201862, “PubChem BioAssay data set” (2004).
The source made the active and inactive calls.

Columns and labels:
Protein RecA = target: T1, Protein RecA (Mycobacterium tuberculosis, UniProt P9WHJ3); assay: Fluorescence Cell-Free Homogeneous Dose Retest to Identify Inhibitors of RecA-Intein Splicing Activity. [Related pubchem assays (depositor defined):AID2097, AID2223, AID489010, AID492950]; format: functional
T1 sequence (P9WHJ3 whole entry): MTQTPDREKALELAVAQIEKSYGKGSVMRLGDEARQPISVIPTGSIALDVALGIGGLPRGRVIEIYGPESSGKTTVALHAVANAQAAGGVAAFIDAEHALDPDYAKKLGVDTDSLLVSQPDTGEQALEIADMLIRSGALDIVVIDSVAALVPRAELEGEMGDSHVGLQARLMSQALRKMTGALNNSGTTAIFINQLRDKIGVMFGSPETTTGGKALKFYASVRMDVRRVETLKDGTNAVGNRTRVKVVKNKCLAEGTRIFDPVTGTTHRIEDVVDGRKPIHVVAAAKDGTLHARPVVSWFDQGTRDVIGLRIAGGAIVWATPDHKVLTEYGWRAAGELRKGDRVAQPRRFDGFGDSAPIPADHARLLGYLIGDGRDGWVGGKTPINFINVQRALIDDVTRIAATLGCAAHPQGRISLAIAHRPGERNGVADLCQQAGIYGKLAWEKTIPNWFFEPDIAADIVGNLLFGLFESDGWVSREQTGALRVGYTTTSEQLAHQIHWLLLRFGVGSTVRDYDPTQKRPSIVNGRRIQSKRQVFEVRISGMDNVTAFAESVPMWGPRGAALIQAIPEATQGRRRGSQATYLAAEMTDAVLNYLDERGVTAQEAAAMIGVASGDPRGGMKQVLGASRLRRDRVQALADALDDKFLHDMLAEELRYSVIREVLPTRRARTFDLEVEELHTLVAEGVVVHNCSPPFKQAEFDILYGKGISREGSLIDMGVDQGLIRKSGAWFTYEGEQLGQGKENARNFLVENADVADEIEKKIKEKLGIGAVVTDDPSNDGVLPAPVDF

[1] = target: Glycogen synthase kinase-3 beta (Homo sapiens, UniProt P49841); format: functional;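 note: value comes from a broad kinome profiling panel, with GSK3B as the panel member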
Chain of Glycogen synthase kinase-3 beta (P49841 whole entry): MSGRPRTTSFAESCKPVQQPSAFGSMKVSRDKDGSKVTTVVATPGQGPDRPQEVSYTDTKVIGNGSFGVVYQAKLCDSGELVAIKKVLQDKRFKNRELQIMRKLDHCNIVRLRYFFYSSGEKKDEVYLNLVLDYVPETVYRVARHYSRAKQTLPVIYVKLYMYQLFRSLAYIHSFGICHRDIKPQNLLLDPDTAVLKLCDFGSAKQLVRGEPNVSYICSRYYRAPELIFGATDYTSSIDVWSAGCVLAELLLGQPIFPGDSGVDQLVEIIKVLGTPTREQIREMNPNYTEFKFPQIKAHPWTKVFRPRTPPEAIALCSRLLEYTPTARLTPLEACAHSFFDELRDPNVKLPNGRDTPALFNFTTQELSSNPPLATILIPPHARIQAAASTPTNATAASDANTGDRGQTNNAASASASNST

[2] = target: Dual specificity tyrosine-phosphorylation-regulated kinase 4 (Homo sapiens, UniProt Q9NR20); format: functional
Chain of Dual specificity tyrosine-phosphorylation-regulated kinase 4 (Q9NR20 whole entry): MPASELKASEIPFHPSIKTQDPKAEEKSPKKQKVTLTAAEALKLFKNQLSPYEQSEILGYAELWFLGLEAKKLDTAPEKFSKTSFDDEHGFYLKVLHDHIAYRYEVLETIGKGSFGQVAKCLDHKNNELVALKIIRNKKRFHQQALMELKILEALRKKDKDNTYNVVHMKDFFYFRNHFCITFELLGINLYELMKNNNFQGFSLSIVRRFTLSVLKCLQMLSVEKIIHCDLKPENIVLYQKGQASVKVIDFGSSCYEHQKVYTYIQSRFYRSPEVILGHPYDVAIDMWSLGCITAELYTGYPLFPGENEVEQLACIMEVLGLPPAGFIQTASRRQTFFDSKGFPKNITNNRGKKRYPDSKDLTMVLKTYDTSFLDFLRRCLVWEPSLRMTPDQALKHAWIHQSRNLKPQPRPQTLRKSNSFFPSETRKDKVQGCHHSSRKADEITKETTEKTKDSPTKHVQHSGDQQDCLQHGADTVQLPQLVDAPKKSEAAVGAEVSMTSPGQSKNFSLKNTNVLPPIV

[3] = target: Mast/stem cell growth factor receptor Kit (Homo sapiens, UniProt P10721); format: functional;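 note: KIT entry within a kinase panel assay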
[4] = target: Fibroblast growth factor receptor 3 (Homo sapiens, UniProt P22607); format: functional
Chain of Fibroblast growth factor receptor 3 (P22607 whole entry): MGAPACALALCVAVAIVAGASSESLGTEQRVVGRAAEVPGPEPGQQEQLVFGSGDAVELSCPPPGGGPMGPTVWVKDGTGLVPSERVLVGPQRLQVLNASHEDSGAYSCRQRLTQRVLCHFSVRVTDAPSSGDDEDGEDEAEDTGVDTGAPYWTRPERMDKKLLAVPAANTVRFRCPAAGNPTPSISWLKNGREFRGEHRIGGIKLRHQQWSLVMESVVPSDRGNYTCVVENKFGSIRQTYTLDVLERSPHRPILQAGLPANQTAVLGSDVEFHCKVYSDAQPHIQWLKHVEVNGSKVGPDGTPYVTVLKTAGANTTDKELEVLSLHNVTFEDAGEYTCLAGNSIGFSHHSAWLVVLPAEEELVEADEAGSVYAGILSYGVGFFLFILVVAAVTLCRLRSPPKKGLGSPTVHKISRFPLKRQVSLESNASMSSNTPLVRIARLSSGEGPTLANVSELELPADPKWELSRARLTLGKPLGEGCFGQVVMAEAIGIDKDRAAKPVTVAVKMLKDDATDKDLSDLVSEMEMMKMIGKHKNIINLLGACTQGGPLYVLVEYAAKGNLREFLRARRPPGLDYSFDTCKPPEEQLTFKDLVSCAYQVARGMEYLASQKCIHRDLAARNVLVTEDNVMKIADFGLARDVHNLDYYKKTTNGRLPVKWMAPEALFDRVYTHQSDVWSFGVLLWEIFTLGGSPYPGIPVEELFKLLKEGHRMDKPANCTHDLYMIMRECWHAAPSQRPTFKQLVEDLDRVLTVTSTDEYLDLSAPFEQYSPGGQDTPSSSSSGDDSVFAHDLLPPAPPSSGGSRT

[5] = target: Serine/threonine-protein kinase PLK3 (Homo sapiens, UniProt Q9H4B4); format: functional
[6] = target: Receptor tyrosine-protein kinase erbB-2 (Homo sapiens, UniProt P04626); assay: Navigating the Kinome. Panel member name: ERBB2; format: functional
[7] = target: Tyrosine-protein kinase Fer (Homo sapiens, UniProt P16591); format: functional;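 note: FER tested as one member of a kinome panel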
Chain of Tyrosine-protein kinase Fer (P16591 whole entry): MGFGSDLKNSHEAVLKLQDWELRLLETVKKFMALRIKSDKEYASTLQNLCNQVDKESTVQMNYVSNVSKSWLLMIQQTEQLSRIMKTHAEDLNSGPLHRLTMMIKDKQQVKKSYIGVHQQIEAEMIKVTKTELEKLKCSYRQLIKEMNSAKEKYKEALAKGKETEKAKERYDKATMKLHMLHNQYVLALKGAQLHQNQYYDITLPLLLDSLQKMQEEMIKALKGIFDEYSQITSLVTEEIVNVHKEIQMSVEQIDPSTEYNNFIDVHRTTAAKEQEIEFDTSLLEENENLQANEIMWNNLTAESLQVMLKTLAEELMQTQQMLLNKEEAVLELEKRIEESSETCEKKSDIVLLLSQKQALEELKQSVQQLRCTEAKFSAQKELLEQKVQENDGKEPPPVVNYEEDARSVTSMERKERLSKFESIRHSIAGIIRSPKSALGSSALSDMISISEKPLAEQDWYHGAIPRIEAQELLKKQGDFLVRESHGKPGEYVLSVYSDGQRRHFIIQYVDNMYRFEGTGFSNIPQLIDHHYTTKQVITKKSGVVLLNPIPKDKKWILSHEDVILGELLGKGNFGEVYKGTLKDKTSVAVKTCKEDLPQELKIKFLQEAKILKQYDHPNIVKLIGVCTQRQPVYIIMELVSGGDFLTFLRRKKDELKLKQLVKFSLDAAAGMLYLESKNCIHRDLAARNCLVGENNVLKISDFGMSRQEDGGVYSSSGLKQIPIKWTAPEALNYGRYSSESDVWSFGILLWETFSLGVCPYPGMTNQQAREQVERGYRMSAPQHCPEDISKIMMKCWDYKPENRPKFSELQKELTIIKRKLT

[8] = target: Cyclin-dependent kinase 1 (Homo sapiens, UniProt P06493); format: functional;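 note: Kinome-wide panel profiling, with the target listed as panel member CDC2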
[9] = target: 5'-AMP-activated protein kinase catalytic subunit alpha-1 (Homo sapiens, UniProt Q13131); format: functional
[10] = target: Serine/threonine-protein kinase PLK1 (Homo sapiens, UniProt P53350); format: functional;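 note: PLK1 measured as one member of a kinome-wide profiling panel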
Chain of Serine/threonine-protein kinase PLK1 (P53350 whole entry): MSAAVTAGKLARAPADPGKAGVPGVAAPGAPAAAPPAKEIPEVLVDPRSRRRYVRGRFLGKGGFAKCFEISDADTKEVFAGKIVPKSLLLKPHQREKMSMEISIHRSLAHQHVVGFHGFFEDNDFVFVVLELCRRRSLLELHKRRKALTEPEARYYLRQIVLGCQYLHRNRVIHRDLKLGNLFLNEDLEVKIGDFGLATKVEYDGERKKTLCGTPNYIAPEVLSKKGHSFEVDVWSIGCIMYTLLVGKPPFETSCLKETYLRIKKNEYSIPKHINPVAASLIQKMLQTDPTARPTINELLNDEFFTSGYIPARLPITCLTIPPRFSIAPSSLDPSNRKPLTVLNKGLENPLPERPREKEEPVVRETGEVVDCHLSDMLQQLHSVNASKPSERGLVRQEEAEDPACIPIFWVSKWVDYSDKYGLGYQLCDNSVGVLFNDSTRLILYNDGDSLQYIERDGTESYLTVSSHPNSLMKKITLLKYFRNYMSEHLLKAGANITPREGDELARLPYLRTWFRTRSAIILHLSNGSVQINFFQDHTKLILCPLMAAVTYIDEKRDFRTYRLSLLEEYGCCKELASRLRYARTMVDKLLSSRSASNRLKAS

[11] = target: Serine/threonine-protein kinase Chk2 (Homo sapiens, UniProt O96017); format: functional;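 note: CHEK2 entry within a kinome-wide screening panel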
Chain of Serine/threonine-protein kinase Chk2 (O96017 whole entry): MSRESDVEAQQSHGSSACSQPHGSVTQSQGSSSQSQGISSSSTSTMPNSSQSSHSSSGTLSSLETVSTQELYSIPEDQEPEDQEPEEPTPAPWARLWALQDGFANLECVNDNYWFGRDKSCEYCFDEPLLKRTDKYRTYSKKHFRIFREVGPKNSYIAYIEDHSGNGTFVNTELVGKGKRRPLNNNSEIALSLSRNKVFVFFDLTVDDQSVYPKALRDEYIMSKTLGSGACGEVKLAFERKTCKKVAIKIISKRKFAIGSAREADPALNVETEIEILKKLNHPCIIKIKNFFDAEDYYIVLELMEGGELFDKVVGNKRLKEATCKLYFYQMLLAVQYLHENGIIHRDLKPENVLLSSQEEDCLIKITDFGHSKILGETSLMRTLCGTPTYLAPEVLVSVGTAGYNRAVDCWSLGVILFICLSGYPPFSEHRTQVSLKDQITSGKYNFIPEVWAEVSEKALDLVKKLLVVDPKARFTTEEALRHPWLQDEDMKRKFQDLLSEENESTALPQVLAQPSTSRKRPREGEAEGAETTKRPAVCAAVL

[12] = target: cAMP-dependent protein kinase catalytic subunit PRKX (Homo sapiens, UniProt P51817); format: functional
Activin receptor type-1 = Activin receptor type-1 (Homo sapiens, UniProt Q04771); assay: Navigating the Kinome. Panel member name: ACVR1; format: functional
[13] = target: Dual specificity tyrosine-phosphorylation-regulated kinase 1A (Homo sapiens, UniProt Q13627); format: functional;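 note: measured against DYRK1A as one member of a broad kinome profiling panel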
[14] = target: Glycogen synthase kinase-3 alpha (Homo sapiens, UniProt P49840); format: functional;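 note: GSK3A result taken from a broad kinome-wide kinase panel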
[15] = target: Interleukin-1 receptor-associated kinase 4 (Homo sapiens, UniProt Q9NWZ3); format: functional
Chain of Interleukin-1 receptor-associated kinase 4 (Q9NWZ3 whole entry): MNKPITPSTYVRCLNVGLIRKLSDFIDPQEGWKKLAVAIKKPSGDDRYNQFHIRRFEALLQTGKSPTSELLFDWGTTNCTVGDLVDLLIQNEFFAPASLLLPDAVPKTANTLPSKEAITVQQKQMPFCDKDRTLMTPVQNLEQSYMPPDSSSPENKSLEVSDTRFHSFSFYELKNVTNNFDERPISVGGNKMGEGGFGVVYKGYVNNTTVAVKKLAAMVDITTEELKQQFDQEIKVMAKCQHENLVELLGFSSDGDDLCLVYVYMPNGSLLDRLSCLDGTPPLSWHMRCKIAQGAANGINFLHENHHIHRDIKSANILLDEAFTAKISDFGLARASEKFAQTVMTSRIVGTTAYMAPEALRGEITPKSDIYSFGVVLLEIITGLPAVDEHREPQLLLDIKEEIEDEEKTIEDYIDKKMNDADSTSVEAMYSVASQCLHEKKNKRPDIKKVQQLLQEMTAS

[16] = target: Serine/threonine-protein kinase TAO1 (Homo sapiens, UniProt Q7L7X3); format: functional
[17] = target: Testis-specific serine/threonine-protein kinase 2 (Homo sapiens, UniProt Q96PF2); format: functional;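 note: part of the Navigating the Kinome panel, target entry STK22B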
Chain of Testis-specific serine/threonine-protein kinase 2 (Q96PF2 whole entry): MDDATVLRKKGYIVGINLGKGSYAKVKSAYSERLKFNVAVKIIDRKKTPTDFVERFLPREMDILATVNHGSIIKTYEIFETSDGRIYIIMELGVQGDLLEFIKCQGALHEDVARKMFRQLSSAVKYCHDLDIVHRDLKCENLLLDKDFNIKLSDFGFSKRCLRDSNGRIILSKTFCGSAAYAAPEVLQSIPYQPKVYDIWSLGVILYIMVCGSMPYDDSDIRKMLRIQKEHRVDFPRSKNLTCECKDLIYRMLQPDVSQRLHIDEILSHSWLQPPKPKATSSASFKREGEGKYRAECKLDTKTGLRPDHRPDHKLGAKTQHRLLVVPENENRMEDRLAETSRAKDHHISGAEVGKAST

[18] = target: Serine/threonine-protein kinase Nek4 (Homo sapiens, UniProt P51957); format: functional
[19] = target: Mitogen-activated protein kinase 8 (Homo sapiens, UniProt P45983); format: functional;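 note: value comes from one member of a kinome-wide kinase profiling panel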
Chain of Mitogen-activated protein kinase 8 (P45983 whole entry): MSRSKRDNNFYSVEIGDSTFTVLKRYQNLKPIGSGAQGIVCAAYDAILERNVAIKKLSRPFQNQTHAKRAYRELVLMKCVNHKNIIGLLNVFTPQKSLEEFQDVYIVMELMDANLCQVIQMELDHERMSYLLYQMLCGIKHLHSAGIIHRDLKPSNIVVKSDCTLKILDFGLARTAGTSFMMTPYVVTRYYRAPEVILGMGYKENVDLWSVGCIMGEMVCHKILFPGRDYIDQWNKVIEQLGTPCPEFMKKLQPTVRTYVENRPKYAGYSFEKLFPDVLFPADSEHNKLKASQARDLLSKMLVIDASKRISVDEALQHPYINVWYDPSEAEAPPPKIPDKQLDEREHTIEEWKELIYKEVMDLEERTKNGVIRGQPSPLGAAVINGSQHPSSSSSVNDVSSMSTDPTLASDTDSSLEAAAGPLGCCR

[20] = target: Dual specificity mitogen-activated protein kinase kinase 1 (Homo sapiens, UniProt Q02750); assay: Navigating the Kinome. Panel member name: MAP2K1; format: functional
[21] = target: Lymphokine-activated killer T-cell-originated protein kinase (Homo sapiens, UniProt Q96KB5); format: functional;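 note: value comes from a kinase panel screen in which TOPK was one of the panel members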
HEK293 = assay: inhibitors of LMP1-driven NF-kB reporter, dose response, cell-based, HEK293, luciferase, cherry-pick (AID 588343); format: functional; conditions: Homo sapiens
Caspase-7 = target: T2, Caspase-7 (Homo sapiens, UniProt P55210); assay: procaspase-7 activators, dose response, counter-screen for procaspase-3 activator project, biochemical, absorbance (AID 489013)
T2 sequence (P55210 whole entry): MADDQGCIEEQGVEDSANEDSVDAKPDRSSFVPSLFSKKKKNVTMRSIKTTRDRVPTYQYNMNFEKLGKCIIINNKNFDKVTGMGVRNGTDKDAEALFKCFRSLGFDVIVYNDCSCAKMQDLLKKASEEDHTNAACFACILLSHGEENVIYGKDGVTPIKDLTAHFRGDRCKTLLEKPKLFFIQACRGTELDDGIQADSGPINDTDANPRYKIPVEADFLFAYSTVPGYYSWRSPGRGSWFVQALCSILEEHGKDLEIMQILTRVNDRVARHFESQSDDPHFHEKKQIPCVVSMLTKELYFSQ

Caspase-6 = target: T3, Caspase-6 (Homo sapiens, UniProt P55212); assay: human caspase-6 inhibitors, dose response, biochemical, VEID-R110 fluorescence, cherry-pick (AID 720632)
T3 sequence (P55212 whole entry): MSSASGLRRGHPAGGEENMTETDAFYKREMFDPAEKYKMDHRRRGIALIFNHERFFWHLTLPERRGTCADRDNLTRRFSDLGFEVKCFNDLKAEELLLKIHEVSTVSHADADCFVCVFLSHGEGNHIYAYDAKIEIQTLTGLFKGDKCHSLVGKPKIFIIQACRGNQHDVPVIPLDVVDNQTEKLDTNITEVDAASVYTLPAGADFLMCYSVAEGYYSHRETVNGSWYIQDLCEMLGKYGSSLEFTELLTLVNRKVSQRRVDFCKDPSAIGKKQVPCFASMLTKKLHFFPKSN

NS(=O)(=O)c1ccc(NC2=CC(=O)C(=O)c3ccccc32)cc1
active: EC50 (Protein RecA) 0.667 µM

Clc1cc(-c2c[nH]c3ncccc23)nc(NC2CCCCC2)n1
active: Ki [2] 0.501 µM | Ki [7] 0.398 µM | Ki [8] 0.0316 µM | Ki [10] 0.501 µM | Ki [13] 0.02 µM | Ki [14] 0.794 µM | Ki [15] 0.158 µM | Ki [20] 0.2 µM
inactive: Ki [1] > 1 µM | Ki [3] > 1.26 µM | Ki [4] > 2 µM | Ki [5] > 7.94 µM | Ki [6] > 1.58 µM | Ki [9] > 2 µM | Ki [11] > 1.58 µM | Ki [12] > 1.26 µM | Ki (Activin receptor type-1) > 3.98 µM | Ki [16] > 7.94 µM | Ki [17] > 1.58 µM | Ki [18] > 6.31 µM | Ki [19] > 3.16 µM | Ki [21] > 10 µM

O=C(N/N=C/c1ccc(O)cc1O)c1ccc(CN2C(=O)c3cccc4cccc2c34)cc1
inactive: EC50 (Caspase-7) > 85.3 µM
active: AC50 (HEK293) 6.46 µM

CC(C)N(C(=O)Nc1ccc2nsnc2c1)C(C)C
active: AC50 (Caspase-6) 5.6 µM
